Where a SMILES comes first, the peptide text is derived from it.

In US20250243245A1 (priority 2022, published 2025) one finds MIC data, which are given here for 10 molecules.

For this experiment, the system named is E. coli strain BL21. Particulars: BL21, 24 h.

Regarding `N=C(N)NCCC[C@H](NC(=O)[C@H](Cc1c[nH]c2ccccc12)NC(=O)[C@H](Cc1c[nH]c2ccccc12)NC(=O)[C@H](CCCNC(=N)N)NC(=O)[C@H](Cc1c[nH]c2ccccc12)NC(=O)[C@H](Cc1c[nH]c2ccccc12)NC(=O)[C@H](CCCNC(=N)N)NC(=O)[C@@H](N)CCCNC(=N)N)C(=O)O` [Peptide 8P-1, reference compound] (H-RRWWRWWR-OH; N-terminus and C-terminus assumed), the MIC – broadly, the lowest concentration that inhibits growth of the organism – is on record as above 20 mM.

With `CC(C)C[C@H](NC(=O)[C@H](CCCNC(=N)N)NC(=O)[C@H](CCCNC(=N)N)NC(=O)[C@H](CCC(N)=O)NC(=O)[C@H](Cc1c[nH]c2ccccc12)NC(=O)[C@H](CCC(N)=O)NC(=O)[C@H](Cc1ccccc1)NC(=O)[C@H](C)NC(=O)[C@H](CCC(=O)O)NC(=O)[C@@H]1CCCN1C(=O)[C@H](CC(C)C)NC(=O)[C@@H](N)CCCNC(=N)N)C(=O)N[C@@H](CCCNC(=N)N)C(=O)N[C@@H](CCCNC(=N)N)C(=O)N[C@@H](Cc1c[nH]c2ccccc12)C(=O)N[C@@H](CCCNC(=N)N)C(=O)N[C@@H](CCCNC(=N)N)C(=O)N1CCC[C@H]1C(=O)N[C@@H](CC(=O)O)C(=O)N[C@@H](CO)C(=O)N1CCC[C@H]1C(=O)NCC(=O)N[C@@H](CCCNC(=N)N)C(=O)N[C@@H](CCCNC(=N)N)C(=O)N[C@@H](Cc1c[nH]c2ccccc12)C(=O)N[C@@H](Cc1c[nH]c2ccccc12)C(=O)N[C@@H](CCCNC(=N)N)C(=O)N[C@@H](Cc1c[nH]c2ccccc12)C(=O)N[C@@H](Cc1c[nH]c2ccccc12)C(=O)N[C@@H](CCCNC(=N)N)C(=O)O` [UGK-5] (H-RLPEAFQWQRRLRRWRRPDSPGRRWWRWWR-OH; N-terminus and C-terminus assumed), the MIC is 5 to 10 mM.

On to `CC(C)C[C@H](NC(=O)[C@H](CO)NC(=O)[C@H](CCCCN)NC(=O)[C@H](CC(C)C)NC(=O)[C@H](CCCCN)NC(=O)[C@H](CCC(=O)O)NC(=O)[C@H](CC(C)C)NC(=O)[C@H](CC(C)C)NC(=O)[C@H](CCC(=O)O)NC(=O)[C@H](CCC(=O)O)NC(=O)[C@H](CC(C)C)NC(=O)[C@H](CCCNC(=N)N)NC(=O)[C@H](CCCCN)NC(=O)[C@@H]1CCCN1C(=O)[C@@H](N)CCC(N)=O)C(=O)N[C@@H](CCC(=O)O)C(=O)NCC(=O)N[C@@H](CO)C(=O)N[C@@H](CCCCN)C(=O)N[C@@H](C)C(=O)N[C@@H](Cc1c[nH]cn1)C(=O)N[C@@H](CCC(=O)O)C(=O)N[C@@H](CCCCN)C(=O)N[C@@H](CC(C)C)C(=O)N[C@@H](Cc1c[nH]cn1)C(=O)N[C@@H](CC(=O)O)C(=O)N[C@@H](Cc1c[nH]c2ccccc12)C(=O)N[C@H](C(=O)N[C@@H](CCCNC(=N)N)C(=O)N[C@@H](CCCCN)C(=O)O)[C@@H](C)O` [UGK-49] (H-QPKRLEELLEKLKSLEGSKAHEKLHDWTRK-OH; N-terminus and C-terminus assumed), for which the MIC was above 20 mM. The result for `CC[C@H](C)[C@H](NC(=O)[C@H](CCCNC(=N)N)NC(=O)[C@H](CCCNC(=N)N)NC(=O)[C@H](CCC(N)=O)NC(=O)[C@H](Cc1c[nH]c2ccccc12)NC(=O)[C@H](Cc1ccccc1)NC(=O)CNC(=O)[C@@H]1CCCN1C(=O)[C@H](CO)NC(=O)CNC(=O)[C@H](CCC(=O)O)NC(=O)[C@H](CC(C)C)NC(=O)[C@H](CO)NC(=O)[C@H](CCCCN)NC(=O)[C@H](CC(C)C)NC(=O)[C@@H](NC(=O)[C@H](CCC(=O)O)NC(=O)[C@H](CC(C)C)NC(=O)[C@H](CC(C)C)NC(=O)[C@H](CCCCN)NC(=O)[C@H](CCC(=O)O)NC(=O)[C@@H]1CCCN1C(=O)[C@H](CC(C)C)NC(=O)[C@H](CCCCN)NC(=O)[C@@H](N)CCCCN)[C@@H](C)CC)C(=O)N[C@@H](CCCNC(=N)N)C(=O)N[C@@H](CCCNC(=N)N)C(=O)N[C@@H](Cc1c[nH]c2ccccc12)C(=O)N[C@@H](CCCNC(=N)N)C(=O)N[C@@H](CCCNC(=N)N)C(=O)O` [UGK-25] (H-KKLPEKLLEILKSLEGSPGFWQRRIRRWRR-OH; N-terminus and C-terminus assumed) reads 2.5 to 5 mM; that for `CC[C@H](C)[C@H](NC(=O)[C@H](CCCCN)NC(=O)[C@H](CC(C)C)NC(=O)[C@@H](NC(=O)[C@H](CCCCN)NC(=O)[C@H](CCCCN)NC(=O)[C@@H](NC(=O)[C@H](CC(C)C)NC(=O)[C@H](CCCCN)NC(=O)[C@@H](N)CCCCN)[C@@H](C)CC)[C@@H](C)CC)C(=O)N[C@@H](CC(C)C)C(=O)NCC(=O)N[C@@H](CO)C(=O)NCC(=O)N[C@@H](Cc1ccc(O)cc1)C(=O)NCC(=O)N[C@@H](CO)C(=O)N1CCC[C@H]1C(=O)NCC(=O)N[C@@H](Cc1ccccc1)C(=O)N[C@@H](Cc1c[nH]c2ccccc12)C(=O)N[C@@H](CCC(N)=O)C(=O)N[C@@H](CCCNC(=N)N)C(=O)N[C@@H](CCCNC(=N)N)C(=O)N[C@H](C(=O)N[C@@H](CCCNC(=N)N)C(=O)N[C@@H](CCCNC(=N)N)C(=O)N[C@@H](Cc1c[nH]c2ccccc12)C(=O)N[C@@H](CCCNC(=N)N)C(=O)N[C@@H](CCCNC(=N)N)C(=O)O)[C@@H](C)CC` [Peptide 30P-1], 1.25 to 2.5 mM; that for `CC(C)C[C@H](NC(=O)[C@H](CCC(N)=O)NC(=O)[C@H](CCC(=O)O)NC(=O)[C@H](CO)NC(=O)[C@H](CC(C)C)NC(=O)[C@H](CCCNC(=N)N)NC(=O)[C@@H]1CCCN1C(=O)[C@@H](N)CCCCN)C(=O)N[C@@H](CCC(N)=O)C(=O)N[C@@H](CCC(=O)O)C(=O)N[C@@H](CC(C)C)C(=O)N[C@H](C(=O)N[C@@H](CCCNC(=N)N)C(=O)N[C@@H](CCCNC(=N)N)C(=O)N[C@@H](CC(C)C)C(=O)N[C@@H](CC(C)C)C(=O)N[C@@H](CC(=O)O)C(=O)N[C@@H](CO)C(=O)N1CCC[C@H]1C(=O)N[C@@H](CC(C)C)C(=O)N[C@@H](CCC(=O)O)C(=O)N[C@@H](CCCNC(=N)N)C(=O)N[C@@H](CCCNC(=N)N)C(=O)N[C@@H](Cc1c[nH]c2ccccc12)C(=O)N[C@@H](Cc1c[nH]c2ccccc12)C(=O)N[C@@H](CCC(=O)O)C(=O)N[C@@H](Cc1c[nH]c2ccccc12)C(=O)N[C@@H](Cc1c[nH]c2ccccc12)C(=O)N[C@@H](CCCNC(=N)N)C(=O)N[C@@H](CCCNC(=N)N)C(=O)O)[C@@H](C)O` [UGK-33] (H-KPRLSEQLQELTRRLLDSPLERRWWEWWRR-OH; N-terminus and C-terminus assumed), above 20 mM. Take `CC[C@H](C)[C@H](NC(=O)[C@H](CCCNC(=N)N)NC(=O)[C@H](CCCNC(=N)N)NC(=O)[C@H](CCC(N)=O)NC(=O)[C@H](Cc1c[nH]c2ccccc12)NC(=O)[C@H](Cc1ccccc1)NC(=O)CNC(=O)[C@@H]1CCCN1C(=O)[C@H](CO)NC(=O)CNC(=O)[C@H](Cc1ccc(O)cc1)NC(=O)[C@@H](NC(=O)[C@H](CO)NC(=O)CNC(=O)[C@H](Cc1ccc(O)cc1)NC(=O)[C@H](CO)NC(=O)CNC(=O)[C@H](CCCNC(=N)N)NC(=O)[C@H](Cc1c[nH]c2ccccc12)NC(=O)[C@H](Cc1c[nH]c2ccccc12)NC(=O)[C@H](CCCNC(=N)N)NC(=O)[C@H](Cc1c[nH]c2ccccc12)NC(=O)[C@H](Cc1c[nH]c2ccccc12)NC(=O)[C@H](CCCNC(=N)N)NC(=O)[C@@H](N)CCCNC(=N)N)C(C)C)C(=O)N[C@@H](CCCNC(=N)N)C(=O)N[C@@H](CCCNC(=N)N)C(=O)N[C@@H](Cc1c[nH]c2ccccc12)C(=O)N[C@@H](CCCNC(=N)N)C(=O)N[C@@H](CCCNC(=N)N)C(=O)O` [UGI-7] (H-RRWWRWWRGSYGSVYGSPGFWQRRIRRWRR-OH; N-terminus and C-terminus assumed): the MIC was in the range of 5 to 10 mM. Regarding `CC[C@H](C)[C@H](NC(=O)[C@H](CCCCN)NC(=O)[C@H](CC(C)C)NC(=O)[C@@H](NC(=O)[C@H](CCCCN)NC(=O)[C@H](CCCNC(=N)N)NC(=O)[C@H](C)NC(=O)[C@@H]1CCCN1C(=O)[C@H](CCCCN)NC(=O)[C@@H](N)CCCNC(=N)N)C(C)C)C(=O)N[C@@H](CC(C)C)C(=O)NCC(=O)N[C@@H](CCCNC(=N)N)C(=O)NCC(=O)N[C@@H](CO)C(=O)N[C@@H](CCC(=O)O)C(=O)N[C@@H](Cc1ccccc1)C(=O)N[C@@H](Cc1c[nH]c2ccccc12)C(=O)N[C@@H](CCC(N)=O)C(=O)N[C@@H](CCCCN)C(=O)N[C@@H](CCCNC(=N)N)C(=O)N[C@H](C(=O)N[C@@H](CCCNC(=N)N)C(=O)N[C@@H](CCCNC(=N)N)C(=O)N[C@@H](Cc1c[nH]c2ccccc12)C(=O)N[C@@H](CCCNC(=N)N)C(=O)N[C@@H](CCCNC(=N)N)C(=O)O)C(C)C` [Peptide 27P-3] (H-RKPARKVLKILGRGSEFWQKRVRRWRR-OH; N-terminus and C-terminus assumed), the MIC was 10 to 20 mM. Molecule `CSCC[C@H](NC(=O)[C@H](Cc1c[nH]c2ccccc12)NC(=O)[C@H](CCC(=O)O)NC(=O)[C@H](Cc1c[nH]c2ccccc12)NC(=O)[C@H](Cc1c[nH]c2ccccc12)NC(=O)[C@H](CCCNC(=N)N)NC(=O)[C@H](CCCNC(=N)N)NC(=O)[C@H](CCC(=O)O)NC(=O)[C@H](CC(C)C)NC(=O)[C@@H]1CCCN1C(=O)[C@H](CO)NC(=O)[C@H](CC(=O)O)NC(=O)[C@H](CC(C)C)NC(=O)[C@H](CC(C)C)NC(=O)[C@H](CCCNC(=N)N)NC(=O)[C@H](CCCNC(=N)N)NC(=O)[C@@H](NC(=O)[C@H](CC(C)C)NC(=O)[C@H](CCC(=O)O)NC(=O)[C@H](CCC(N)=O)NC(=O)[C@H](CC(C)C)NC(=O)[C@H](CCC(N)=O)NC(=O)[C@H](CCC(=O)O)NC(=O)[C@H](CO)NC(=O)CNC(=O)[C@H](CCCNC(=N)N)NC(=O)[C@@H]1CCCN1C(=O)[C@@H](N)CCCCN)[C@@H](C)O)C(=O)N[C@@H](CCCNC(=N)N)C(=O)N[C@@H](CCCNC(=N)N)C(=O)O` [UGK-29] (H-KPRGSEQLQELTRRLLDSPLERRWWEWMRR-OH; N-terminus and C-terminus assumed) yielded an MIC above 20 mM.

With `CC[C@H](C)[C@H](NC(=O)[C@H](CCCNC(=N)N)NC(=O)[C@H](CCCNC(=N)N)NC(=O)[C@H](CCC(N)=O)NC(=O)[C@H](Cc1c[nH]c2ccccc12)NC(=O)[C@H](Cc1ccccc1)NC(=O)CNC(=O)[C@@H]1CCCN1C(=O)[C@H](CO)NC(=O)CNC(=O)[C@H](Cc1ccc(O)cc1)NC(=O)CNC(=O)[C@H](CO)NC(=O)CNC(=O)[C@H](CCCNC(=N)N)NC(=O)[C@H](Cc1c[nH]c2ccccc12)NC(=O)[C@H](Cc1c[nH]c2ccccc12)NC(=O)[C@H](CCCNC(=N)N)NC(=O)[C@H](Cc1c[nH]c2ccccc12)NC(=O)[C@H](Cc1c[nH]c2ccccc12)NC(=O)[C@H](CCCNC(=N)N)NC(=O)[C@@H](N)CCCNC(=N)N)C(=O)N[C@@H](CCCNC(=N)N)C(=O)N[C@@H](CCCNC(=N)N)C(=O)N[C@@H](Cc1c[nH]c2ccccc12)C(=O)N[C@@H](CCCNC(=N)N)C(=O)N[C@@H](CCCNC(=N)N)C(=O)O` [Peptide 27P-1] (H-RRWWRWWRGSGYGSPGFWQRRIRRWRR-OH; N-terminus and C-terminus assumed), the MIC was above 20 mM.
